Series [1] can be described thus: Duration of action in rats as assessed from the decrease in body core temperature. It is filed as in vivo. The conditions noted are these: male Wistar rats, i.p.; for PE, Δ ° C. (peak effect, maximum decrease in body temperature): radiotelemetry core body temperature, versus last value prior to treatment; for D, hours (duration of action): time from treatment to return of body temperature to the control level.
Method: At least one week prior to treatments six male Wistar rats were anaesthetised with pentobarbital-Na (60 mg/kg, i.p.; Nembutal, Phylaxia-Sanofi, Budapest). Using sterile surgical procedures TL11M2-C50-PXT or TA10TA-F40 type radiotelemetry transmitters (Data Sciences International, St. Paul, Minn., USA) permitting continuous monitoring of core body temperature were implanted into the peritoneal cavity of the animals. After surgery the rats were treated with an antibiotic (1 ml/kg b.w. i.m. Tardomyocel, Bayer A G, Leverkusen, Germany). The animals were housed individually in type 2 plastic rat cages with free access to food and tap water. The compounds were dissolved in 5 M hydrochloric acid solution and distilled water (5%/95% v/v) then the pH of the solution was adjusted to 3 using 1 M sodium hydroxide solution. The compounds were administered intraperitoneally in a volume of 10 ml/kg.
Radio signals emitted by the transmitters were detected by RLA1000 type receivers placed under each animal's cage. Data were collected and saved by a Dataquest IV computerised data acquisition system. The computer was set to sample body temperature for 10 seconds in every second minute. Mean values for 30 min periods over the whole day were calculated running the “Sort Utility” of the Dataquest IV. […] The upper and lower limits of the evaluating routine were set to exclude biologically improbable values. Individual body temperature curves were averaged for the six animals.
Peak effect (PE) was measured as the maximum decrease in body temperature in comparison to the last value prior to treatment. Using mean values, duration of action (D) was measured as the time interval from treatment to return of body temperature to the control level.

Series [2] relates to MgCl2-induced global cerebral ischemia in mice. In words: Neuroprotective effect in MgCl2-induced global cerebral ischemia in mice. The settings on record: dose that prolonged survival time by 50%; i.p. 30 min before i.v. saturated MgCl2 (5 ml/kg); male NMRI mice. It is filed as in vivo. The procedure: Male NMRI mice weighing 20–25 g were randomly allocated to treatment groups of 10 animals/group. The compounds were dissolved in 5 M hydrochloric acid solution and distilled water (5%/95% v/v) then the pH of the solution was adjusted to 3 using 1 M sodium hydroxide solution. The compounds were administered intraperitoneally in a volume of 10 ml/kg. Each compound was tested at four increasing dose levels and a separate group of animals was treated with the vehicle. Thirty min after treatment all mice received an intravenous bolus injection of saturated MgCl2 solution (5 ml/kg) that caused an immediate cardiac arrest and complete cerebral ischemia. Increases in survival time (interval between the injection of MgCl2 and the last observable gasp) were used as a measure of neuroprotective effect as described by Berga et al.. Percentage changes in survival time were calculated in comparison to that measured in the vehicle treated group. PD50 (the dose that prolonged survival by 50%) was calculated by linear regression analysis using percentage changes in survival time.

Molecules are shown by their SMILES.

As to `Cc1cc(C2=NN=C(C=O)Cc3cc4c(cc32)OCO4)ccc1[N+](=O)[O-]`, the melting point lay within 188 to 191 °C.
Molecule `Cc1cc(C2=NN=C(C(=O)O)Cc3cc4c(cc32)OCO4)ccc1[N+](=O)[O-]` returned a melting point of 185 to 186 °C.
Still for that read-out and setting: as for `Cc1cc(C2=NN=C(C=NNC(N)=O)Cc3cc4c(cc32)OCO4)ccc1[N+](=O)[O-]`, the figure is 260 to 264 °C; as for `CC1=Cc2cc3c(cc2C(c2ccc([N+](=O)[O-])c(C)c2)=NN1C(=O)NC1CC1)OCO3`, 198 to 202 °C.
Same read-out and setting: under `Cc1cc(C2=NN=C(C#N)Cc3cc4c(cc32)OCO4)ccc1N` stands 252 to 255 °C; under `CC(=O)N1N=C(c2ccc(N)c(C)c2)c2cc3c(cc2C=C1C)OCO3`, 222 to 223 °C; under `CC1=NN=C(c2ccc([N+](=O)[O-])c(C)c2)c2cc3c(cc2C1)OCO3`, 189 to 194 °C.
On the same count and under the same terms, under `CC(=O)N1N=C(c2ccc([N+](=O)[O-])c(C)c2)c2cc3c(cc2CC1C(N)=O)OCO3` (racemic) stands 157 to 161 °C; under `Cc1cc(C2=NNC(C)(C#N)Cc3cc4c(cc32)OCO4)ccc1[N+](=O)[O-]` (racemic), 148 to 151 °C; under `CC(=O)N1N=C(c2ccc([N+](=O)[O-])c(C)c2)c2cc3c(cc2CC1(C)C#N)OCO3` (racemic), 253 to 255 °C.
`CCC(=O)N1N=C(c2ccc([N+](=O)[O-])c(C)c2)c2cc3c(cc2CC1(C)C#N)OCO3` (racemic): the melting point is 191 to 193 °C.
`Cc1cc(C2=NN(C(=O)NC3CC3)C(C)Cc3cc4c(cc32)OCO4)ccc1N` (racemic) registered a melting point of 179 to 181 °C.
The same measure, in the same setting: under `CC(=O)N1N=C(c2ccc([N+](=O)[O-])c(C)c2)c2cc3c(cc2CC1C)OCO3` (racemic) stands 178 to 181 °C.
Same read-out and setting: as for `CCC(=O)N1N=C(c2ccc([N+](=O)[O-])c(C)c2)c2cc3c(cc2CC1C)OCO3` (racemic), the figure is 172 to 175 °C.
`CC(=O)N1N=C(c2ccc(N)c(C)c2)c2cc3c(cc2CC1C)OCO3` (racemic) [Example 27, (±)-7-acetyl-5-(4-amino-3-methyl-phenyl)-7,8-dihydro-8-methyl-9H-1,3-dioxolo[4,5-h][2,3]benzodiazepine] showed a melting point of 121 to 123 °C. Further, in series [1], the “PE, Δ ° C. (peak effect, maximum decrease in body temperature)” value was −1.45 °C and the “D, hours (duration of action)” value was more than 20 h. In addition, the “PD50, mg/kg i.p.” value in series [2] amounted to 5.4 mg/kg.
For `CONC(=O)N1N=C(c2ccc(N)c(C)c2)c2cc3c(cc2CC1C)OCO3` (racemic) [Example 30, (±)-5-(4-amino-3-methyl-phenyl)-7,8-dihydro-8-methyl-7-(N-methozy-carbamoyl)-9H-1,3-dioxolo[4,5-h][2,3]benzodiazepine], the “PD50, mg/kg i.p.” value in series [2] amounted to 14.9 mg/kg.
For `CNC(=O)N1N=C(c2ccc(N)c(C)c2)c2cc3c(cc2CC1C)OCO3` (racemic) [Example 31, (±)-5-(4-amino-3-methyl-phenyl)-7,8-dihydro-8-methyl-7-(N-methyl-carbamoyl)-9H-1,3-dioxolo[4.5-h][2.3]benzodiazepine], in series [1], the “PE, Δ ° C. (peak effect, maximum decrease in body temperature)” value was −1.46 °C and the “D, hours (duration of action)” value stood at 20 h.
With `CC(=O)N1N=C(c2ccc(N)c(C)c2)c2cc3c(cc2CC1(C)C#N)OCO3` (racemic) [Example 38, (±)-7-acetyl-5-(4-amino-3-methyl-phenyl)-8-cyano-7,8-dihydro-8-methyl-9H-1,3-dioxolo[4.5-h][2.3]benzodiazepine], in series [1], the “PE, Δ ° C. (peak effect, maximum decrease in body temperature)” value is −1.34 °C and the “D, hours (duration of action)” value is 9 h. In series [2], the “PD50, mg/kg i.p.” value came out at 11.2 mg/kg.
